Data as given in patent US12187728B2 (Raze Therapeutics, Inc., priority 2015, dated 2025).

Target: T1, Human MTHFD2 (Homo sapiens, UniProt P13995)
T1 construct: residues 36-350 in Uniport ID P13995; His6 (N); made in house; host or cells: E. coli
T1 sequence (P13995 36-350): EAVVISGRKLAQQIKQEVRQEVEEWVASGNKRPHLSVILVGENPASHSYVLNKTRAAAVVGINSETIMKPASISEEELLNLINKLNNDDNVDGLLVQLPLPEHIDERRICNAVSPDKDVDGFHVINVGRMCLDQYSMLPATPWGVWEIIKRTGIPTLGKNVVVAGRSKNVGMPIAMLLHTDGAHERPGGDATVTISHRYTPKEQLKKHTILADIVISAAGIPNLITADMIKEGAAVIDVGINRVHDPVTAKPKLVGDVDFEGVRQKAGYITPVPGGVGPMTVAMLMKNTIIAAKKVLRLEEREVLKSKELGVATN
Assay: MTHFD2 Activity Assay (dehydrogenase activity, diaphorase/resazurin coupled fluorescence)
Format: biochemical
Details: inhibitory activity (IC50 and/or binding constant); 0.2 nM MTHFD2, 11 concentrations
Method in brief: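 His6-tagged MTHFD2 (res. 36-350), E. coli-expressed, at 0.2 nM preincubated with compound 15 min in Hepes pH 8.0/MgCl2/KH2PO4 buffer; 70 μM CH2-THF, 1 mM NAD+ added with resazurin/diaphorase, 30 min, EDTA stop. Resorufin fluorescence (ex 525/em 598); IC50 from 11-point 4-parameter fit.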

IC50 [nM]	SMILES
10 to 1000	Cn1c(N[C@H]2CCC[C@H](C(=O)O)C2)nc2c1c(=O)n(Cc1ccc(Cl)c(Cl)c1)c(=O)n2C (single isomer, unassigned) [Example 209, (1S,3S)-3-(1-(3,4-dichlorobenzyl)-3,7-dimethyl-2,6-dioxo-2,3,6,7-tetrahydro-1H-purin-8-ylamino)cyclohexanecarboxylic or (1R,3R)-3-(1-(3,4-dichlorobenzyl)-3,7-dimethyl-2,6-dioxo-2,3,6,7-tetrahydro-1H-purin-8-ylamino)cyclohexanecarboxylic acid]
10 to 1000	Cn1c(Nc2ccc(CC(N)=O)cc2)nc2c1c(=O)n(Cc1cc3c(Cl)cccc3[nH]1)c(=O)n2C [Example 431, 2-[4-[[1-[(4-chloro-1H-indol-2-yl)methyl]-3,7-dimethyl-2,6-dioxo-purin-8-yl]amino]phenyl]acetamide]
1000 to 5000	Cn1c(N[C@@H]2CC[C@@H](O)C2)nc2c1c(=O)n(Cc1ccc(C#N)c(Cl)c1)c(=O)n2C (racemic) [Example 247, (±)-2-chloro-4-((8-((trans)-3-hydroxycyclopentylamino)-3,7-dimethyl-2,6-dioxo-2,3,6,7-tetrahydro-1H-purin-1-yl)methyl)benzonitrile]
10 to 1000	Cn1c(N[C@H]2CC[C@@H](C(=O)O)CC2)nc2c1c(=O)n(Cc1ccc(Cl)c(Cl)c1)c(=O)n2C [Example 264, (±)-(cis)-4-((1-(3,4-dichlorobenzyl)-3,7-dimethyl-2,6-dioxo-2,3,6,7-tetrahydro-1H-purin-8-yl)amino)cyclohexanecarboxylic acid]
10 to 1000	Cn1c(Nc2cccc([C@H]3C[C@@H]3C(=O)O)n2)nc2c1c(=O)n(Cc1ccc(Cl)c(Cl)c1)c(=O)n2C (racemic) [Example 299, (±)-trans-2-(6-((1-(3,4-dichlorobenzyl)-3,7-dimethyl-2,6-dioxo-2,3,6,7-tetrahydro-1H-purin-8-yl)amino)pyridin-2-yl)cyclopropanecarboxylic acid]
10 to 1000	Cn1c(N2CCC(N)C2)nc2c1c(=O)n(Cc1cc3c(Cl)cccc3[nH]1)c(=O)n2C (centres unmarked) [Example 376]
10 to 1000	Cn1c(N[C@H]2CC[C@@H](C(=O)O)C2)nc2c1c(=O)n(Cc1ccc(Cl)c(Cl)c1)c(=O)n2C [Example 64, (1R,3S)-3-(1-(3,4-dichlorobenzyl)-3,7-dimethyl-2,6-dioxo-2,3,6,7-tetrahydro-1H-purin-8-ylamino)cyclopentanecarboxylic acid]
10 to 1000	Cn1c(Nc2ccnc(CCC(N)=O)c2)nc2c1c(=O)n(Cc1ccc(Cl)c(Cl)c1)c(=O)n2C [Example 283, 3-(4-(1-(3,4-dichlorobenzyl)-3,7-dimethyl-2,6-dioxo-2,3,6,7-tetrahydro-1H-purin-8-ylamino)pyridin-2-yl)propanamide]
10 to 1000	Cn1c(=O)n(Cc2cc3c(Cl)cccc3[nH]2)c(=O)c2c1nc(NC1CCCC(C(=O)O)C1)n2CCN (centres unmarked) [Example 418, 3-(7-(2-aminoethyl)-1-((4-chloro-1H-indol-2-yl)methyl)-3-methyl-2,6-dioxo-2,3,6,7-tetrahydro-1H-purin-8-ylamino)cyclohexanecarboxylic acid]
1000 to 5000	Cn1c(Nc2ccc(-c3ccccc3)cn2)nc2c1c(=O)n(Cc1cc3c(Cl)cccc3[nH]1)c(=O)n2C [Example 400, 1-[(4-chloro-1H-indol-2-yl)methyl]-3,7-dimethyl-8-[(5-phenyl-2-pyridyl)amino]purine-2,6-dione]
10 to 1000	Cn1c(Cn2c(=O)c3c(nc(N[C@H]4CC[C@@H](O)C4)n3C)n(C)c2=O)cc2ccccc21 (racemic) [Example 179, (±)-8-((cis)-3-hydroxycyclopentylamino)-3,7-dimethyl-1-((1-methyl-1H-indol-2-yl)methyl)-1H-purine-2,6(3H,7H)-dione]
10 to 1000	Cn1c(NC2CNC(=O)C2)nc2c1c(=O)n(Cc1cc3ccccc3[nH]1)c(=O)n2C (racemic) [Example 214, (±)-1-((1H-indol-2-yl)methyl)-3,7-dimethyl-8-(5-oxopyrrolidin-3-ylamino)-1H-purine-2,6(3H,7H)-dione]
10 to 1000	Cn1c(Nc2ccc(F)nc2)nc2c1c(=O)n(Cc1cc3c(Cl)cccc3[nH]1)c(=O)n2C [Example 384, 1-((4-chloro-1H-indol-2-yl)methyl)-8-(6-fluoropyridin-3-ylamino)-3,7-dimethyl-1H-purine-2,6(3H,7H)-dione]
1000 to 5000	COC(=O)c1cc(Cn2c(=O)c3c(nc(NCCCO)n3C)n(C)c2=O)ccc1Cl [Example 165, Methyl 2-chloro-5-({8-[(3-hydroxypropyl)amino]-3,7-dimethyl-2,6-dioxo-2,3,6,7-tetrahydro-1H-purin-1-yl}methyl)benzoate]
10 to 1000	Cn1c(NC2CCNC2=O)nc2c1c(=O)n(Cc1ccc(Cl)c(Cl)c1)c(=O)n2C (centres unmarked) [Example 86, 1-[(3,4-dichlorophenyl)methyl]-3,7-dimethyl-8-[(2-oxopyrrolidin-3-yl)amino]-2,3,6,7-tetrahydro-1H-purine-2,6-dione]
10 to 1000	Cn1c(N[C@H]2C[C@@H](C(=O)O)C2)nc2c1c(=O)n(Cc1ccc(Cl)c(Cl)c1)c(=O)n2C [Example 259, (±)-(cis)-3-(1-(3,4-dichlorobenzyl)-3,7-dimethyl-2,6-dioxo-2,3,6,7-tetrahydro-1H-purin-8-ylamino)cyclobutanecarboxylic acid]
> 10000	Cn1cnc2c(=O)n(Cc3ccc(Cl)c(Cl)c3)c(=O)n(C)c21 [Example 253]
1000 to 5000	Cn1c(Nc2cccc([C@H]3C[C@@H]3CO)n2)nc2c1c(=O)n(Cc1cc3c(Cl)cccc3[nH]1)c(=O)n2C (racemic) [Example 335, (±)-trans-1-((4-chloro-1H-indol-2-yl)methyl)-8-((6-(-2-(hydroxymethyl)cyclopropyl)pyridin-2-yl)amino)-3,7-dimethyl-1H-purine-2,6(3H,7H)-dione]
10 to 1000	Cc1ccc2[nH]c(Cn3c(=O)c4c(nc(Nc5ccncc5)n4C)n(C)c3=O)cc2c1 [Example 181, 3,7-dimethyl-1-((5-methyl-1H-indol-2-yl)methyl)-8-(pyridin-4-ylamino)-1H-purine-2,6(3H,7H)-dione]
10 to 1000	Cn1c(Cn2c(=O)c3c(nc(N[C@H]4CC[C@@H](O)C4)n3C)n(C)c2=O)cc2cc(Cl)ccc21 (racemic) [Example 178, (±)-1-((5-chloro-1-methyl-1H-indol-2-yl)methyl)-8-((cis)-3-hydroxycyclopentylamino)-3,7-dimethyl-1H-purine-2,6(3H,7H)-dione]
10 to 1000	Cn1c(Nc2cccc(CCC(=O)O)n2)nc2c1c(=O)n(Cc1cc3c(Cl)cccc3[nH]1)c(=O)n2C [Example 294, 3-(6-(1-((4-chloro-1H-indol-2-yl)methyl)-3,7-dimethyl-2,6-dioxo-2,3,6,7-tetrahydro-1H-purin-8-ylamino)pyridin-2-yl)propanoic acid]
10 to 1000	Cn1c(Nc2ccncn2)nc2c1c(=O)n(Cc1cc3ccccc3[nH]1)c(=O)n2C [Example 216, 1-((1H-indol-2-yl)methyl)-3,7-dimethyl-8-(pyrimidin-4-ylamino)-1H-purine-2,6(3H,7H)-dione]
10 to 1000	CC(O)C1CCC(Nc2nc3c(c(=O)n(Cc4ccc(Cl)c(Cl)c4)c(=O)n3C)n2C)C1 (centres unmarked) [Example 265, 1-(3,4-dichlorobenzyl)-8-(3-(1-hydroxyethyl)cyclopentylamino)-3,7-dimethyl-1H-purine-2,6(3H,7H)-dione]
